# Test results as given in patent US10272056B2, “Treatment for mitochondrial diseases” (The George Washington University a Congressionally …, priority 2015, dated 2019).
# Experiments:
# [1] = tested on: E17.5 hippocampal neurons; assay: Mitochondrial mass in neurons (mito-GFP, quantitative immunohistochemistry COXVα/tubulin); format: cell-based; conditions: NaBt-treated E17.5 neurons; control 7%
# Source text: FIG. 7A-7F show images from microscopy and graphs showing NaBt increases mitochondrial mass. (A) Live cell confocal microscopy of E17.5 hippocampal neurons; high magnification in inset; scale bar=5 (B) Quantitative analysis of the mitochondrial biomass in E17.5 neurons using an anti-CoxVα antibody; *p<0.001. (C) Live cell confocal microscopy of PC12-ND6 cells; high magnification in inset; scale bar=5 (D) Flow cytometric analysis of mitochondrial mass; *p<0.001. (E) Confocal microscopy of E17.5 brains from E12.5 pregnant dams treated with PBS (sham) or NaBt; scale bar=20 (F) Quantitative analysis of mitochondrial mass; *p<0.001.
# Experimental approaches. Five distinct molecular tools were used to investigate mitochondrial biogenesis: 1) the mitochondrial-specific dyes, MitoTracker® Green (MTG) and MitoTracker® Red (MTR); 2) the mito-GFP or mito-dsRed vector to fluorescently label mitochondria; 3) antibodies against mtDNA, COXVα, or SOD2; 4) the fluorescent PicoGreen® dye labeling mtDNA; and 5) quantitative PCR to determine mtDNA copy number.
# The effect of NaBt was investigated in embryonic neuronal progenitor cells, E17.5 hippocampal neurons, which were transfected with the mito-GFP vector and then exposed to various concentrations of NaBt. […] Therefore, all subsequent treatment of E17.5 hippocampal neurons with NaBt was performed in the presence of 2 mM. […]
# PC12-ND6 cells [2] = assay: mtDNA replication (PicoGreen staining, quantitative PCR); format: cell-based; conditions: confirmed by quantitative PCR
# Source text: FIG. 11A-11D are images from microscopy and graphs showing NaBt promotes mtDNA replication via the NRF-1/Tfam axis. (A) Confocal analysis of mtDNA foci; scale bar=5 (B) Quantitative analysis of mtDNA copy number by PCR; *p<0.001. (C, D) Quantitative immunoblot analysis of NRF-1 and Tfam; *p<0.001.
# NaBt enhances mtDNA replication via the PGC1α-mediated NRF-1/Tfam axis. It was investigated whether NaBt enhanced mtDNA replication using the PicoGreen® dye to label mtDNA. PC12-ND6 cells were transfected with the mito-dsRed vector prior to NaBt treatment followed by PicoGreen® staining. […] To corroborate enhanced mitochondrial biogenesis, two key target genes of PGC1α were examined, the NRF-1 transcription factor and its direct target gene Tfam, both essential for mitochondrial biogenesis. […] The findings confirm the NaBt-mediated modulation of mitochondrial biogenesis and mtDNA replication in neuronal cells.
# PC12-ND6 cells [3] = assay: Mitochondrial mass under chloramphenicol (mito-GFP live-cell confocal microscopy); format: cell-based; conditions: NaBt prior to chloramphenicol, up to highest concentration
# Source text: FIG. 14A-14E are images from microscopy showing that pre-treatment of PC12-ND6 cells with NaBt prevents chloramphenicol-mediated decrease of mitochondrial mass. (A) Graph of PC12-ND6 cell death upon exposure to different concentrations of chloramphenicol (Cm). Percent of cell death±SEM (n=250 cells). (B) Quantitative immunoblot analysis of mitochondrial-encoded MT-CO1 protein (green) and nuclear-encoded SDH-A protein (red) in Cm-treated PC12-ND6 cells. (C) Graph of MT-CO1/SDH-A ratio normalized to untreated PC12-ND6 cells. Mean±SEM (n=3; compared to untreated cells *p=0.0052, **p=0.0048, and ***p=0.0034). (D) Confocal micrographs of untreated and Cm-treated PC12-ND6 cells transfected with the vector mito-GFP. Scale bar represents 5 μm. (E) Confocal micrographs of NaBt pre-treated PC12-ND6 cells transfected with the vector mito-GFP and exposed to Cm. Scale bar represents 5 μm.
# The efficacy of chloramphenicol treatment was determined by simultaneously examining the expression levels of the nuclear-encoded succinate dehydrogenase (SDH-A) subunit of Complex II and the mitochondrial-encoded subunit I of Complex IV (MT-COI) using a quantitative immunoblot approach. […] The effect of chloramphenicol on mitochondrial mass by live-cell confocal microscopy using PC12-ND6 cells transfected with the vector mito-GFP was confirmed.
# [4] = tested on: E17.5 hippocampal neurons; assay: Neuronal stage 3 frequency with chloramphenicol and NaBt; format: cell-based
# Source text: FIG. 16A-16I are images from microscopy and a graph showing that Pre-treatment of E17.5 hippocampal neurons with NaBt protects against chloramphenicol-induced loss of neuronal differentiation. (A-D) Confocal micrographs of E17.5 hippocampal neurons exposed to different concentrations of chloramphenicol at 2DIV and labeled with anti tubulin antibody (red) and nuclear counterstain DAPI (blue) at 3DIV. Scale bar represents 10 μm. (E-H) Confocal micrographs of E17.5 hippocampal neurons treated with NaBt (2 mM) at 1DIV prior to exposure to different concentrations of chloramphenicol at 2DIV and labeled with anti tubulin antibody (red) and nuclear counterstain DAPI (blue) at 3DIV. Scale bar represents 10 μm. (I) Graph of E17.5 β-III^+ hippocampal neurons at the neuronal stage 3. Mean±S.D. (n=250 cells; compared to untreated control *p=0.0001; compared to the corresponding non-NaBt treated sample **p=0.0001; compared to non-NaBt treated cells exposed to Cm at 30 μM‡p=0.007).
# The consequences of chloramphenicol exposure on untreated or NaBt-treated E17.5 hippocampal neurons was examined. At 1DIV, dissociated E17.5 hippocampal neurons were switched to differentiation medium in the absence or presence of NaBt (2 mM) for 24 hours before being treated with increasing concentrations of chloramphenicol (0, 15, 30, and 60 μM) for 24 hours. At 3DIV, their phenotypic differentiation was examined by immunocytochemistry using an antibody against the pan-neuronal marker β-III tubulin and quantified the percent of neurons having reached the developmental stage 3 for each experimental condition. As expected, only half of untreated neurons reached stage 3 in the absence of NaBt, while more than 90% of NaBt-treated neurons achieved such degree of differentiation, thereby forming an elaborate neuritic network (FIGS. 16A, E, and I).
# MELAS fibroblasts = assay: Morphometric analysis of mitochondrial connectivity (Image J); format: cell-based, human; conditions: Image J analysis of MTG-labeled fibroblasts
# Procedure: FIG. 18 is a graph showing that butyrate and its derivatives rescue the mitochondrial dynamics and connectivity in MELAS fibroblasts.
# Butyrates rescue the mitochondrial mass, morphology, networking, and membrane potential in MELAS fibroblasts. Skin fibroblasts from two MELAS patients and from a healthy subject as a control were used. Dose-dependent analyses of butyrates was performed to determine their best concentrations for eliciting an optimal mitochondrial response without cellular toxicity. Healthy and MELAS fibroblasts were treated with PBS, NaBt (2.5 mM), TBN (1.5 mM), or AN9 (300 μM) for three days before labeling with the MTG dye for live cell confocal analysis.
smiles,measurement,setting,value
"CCCC(=O)[O-].[Na+] [NaBt, sodium butyrate]",mitochondria as percent of the cell volume,[1],18%
same,mtDNA foci,PC12-ND6 cells [2],increased number of mtDNA foci
same,mitochondrial biomass with NaBt pre-treatment,PC12-ND6 cells [3],sustain their mitochondrial biomass
same,frequency of advanced neuronal stage with NaBt pre-treatment,[4]; NaBt 2 mM prior to chloramphenicol up to 60 μM,sustained the frequency of advanced neuronal stage
same,percent of neurons reaching stage 3,"[4]; NaBt 2 mM, no chloramphenicol, 3DIV",more than 90%
same,connectivity among mitochondria,MELAS fibroblasts,rescue the connectivity among mitochondria
